Reference: ChEMBL document CHEMBL1138236, “Novel aminophenyl benzamide-type histone deacetylase inhibitors with enhanced potency and selectivity” (J Med Chem, 2007)

Columns and labels:
Histone deacetylase 2 = Histone deacetylase 2 (Homo sapiens, UniProt Q92769)
Description: Inhibition of human recombinant HDAC2

Histone deacetylase 1 = Histone deacetylase 1 (Homo sapiens, UniProt Q13547)
Description: Inhibition of human recombinant HDAC1

Histone deacetylase 8 = target: T1, Histone deacetylase 8 (Homo sapiens, UniProt Q9BY41); assay: Inhibition of human recombinant HDAC8
T1 sequence (Q9BY41 whole entry): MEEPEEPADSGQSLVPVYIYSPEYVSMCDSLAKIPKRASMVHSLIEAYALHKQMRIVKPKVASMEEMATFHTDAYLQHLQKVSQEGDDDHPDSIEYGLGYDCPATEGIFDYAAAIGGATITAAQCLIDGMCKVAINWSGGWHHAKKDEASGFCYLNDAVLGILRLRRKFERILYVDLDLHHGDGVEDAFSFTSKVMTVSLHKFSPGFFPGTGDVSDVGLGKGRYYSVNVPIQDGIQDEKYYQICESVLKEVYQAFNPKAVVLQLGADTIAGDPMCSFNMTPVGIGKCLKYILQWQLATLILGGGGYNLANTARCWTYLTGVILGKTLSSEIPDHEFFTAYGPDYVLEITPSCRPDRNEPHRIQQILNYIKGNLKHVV

[1] = Cytotoxicity against human mammary epithelial cells by MTT assay; assay type: cell-based; conditions: Epithelial cell
HCT-116 = assay: Cytotoxicity against human HCT116 cells by MTT assay; assay type: functional, cell-based
Histone deacetylase 3 = Histone deacetylase 3 (Homo sapiens, UniProt O15379); assay: Inhibition of human recombinant HDAC3
Chain of Histone deacetylase 3 (O15379 whole entry): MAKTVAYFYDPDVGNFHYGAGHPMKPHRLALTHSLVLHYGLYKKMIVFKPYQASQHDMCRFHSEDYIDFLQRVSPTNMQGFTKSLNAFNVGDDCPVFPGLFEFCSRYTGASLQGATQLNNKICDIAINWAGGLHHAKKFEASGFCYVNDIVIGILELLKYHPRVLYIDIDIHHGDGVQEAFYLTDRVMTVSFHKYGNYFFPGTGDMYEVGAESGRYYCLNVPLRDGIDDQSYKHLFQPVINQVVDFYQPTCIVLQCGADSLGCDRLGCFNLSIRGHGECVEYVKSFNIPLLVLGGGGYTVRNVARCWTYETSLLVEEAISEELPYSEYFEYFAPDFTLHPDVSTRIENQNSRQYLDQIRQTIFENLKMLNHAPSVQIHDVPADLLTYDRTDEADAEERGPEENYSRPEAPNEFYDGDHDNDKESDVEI

Histone deacetylase = assay: Inhibition of HDAC in 293T cells; assay type: cell-based, Homo sapiens

Chain of Histone deacetylase 1 (Q13547 whole entry): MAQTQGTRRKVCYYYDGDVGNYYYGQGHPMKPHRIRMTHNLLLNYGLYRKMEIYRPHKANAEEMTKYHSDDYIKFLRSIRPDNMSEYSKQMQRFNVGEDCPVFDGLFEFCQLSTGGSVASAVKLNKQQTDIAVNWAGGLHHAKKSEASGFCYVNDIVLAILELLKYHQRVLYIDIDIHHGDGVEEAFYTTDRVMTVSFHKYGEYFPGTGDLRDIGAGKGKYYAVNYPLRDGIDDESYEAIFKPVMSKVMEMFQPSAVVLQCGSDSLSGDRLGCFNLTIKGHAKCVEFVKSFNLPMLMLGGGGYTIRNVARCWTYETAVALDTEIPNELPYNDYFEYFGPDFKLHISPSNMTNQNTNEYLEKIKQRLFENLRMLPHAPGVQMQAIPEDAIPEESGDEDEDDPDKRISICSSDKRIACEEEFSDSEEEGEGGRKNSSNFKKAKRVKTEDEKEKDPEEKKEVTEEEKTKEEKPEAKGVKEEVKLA
Chain of Histone deacetylase 2 (Q92769 whole entry): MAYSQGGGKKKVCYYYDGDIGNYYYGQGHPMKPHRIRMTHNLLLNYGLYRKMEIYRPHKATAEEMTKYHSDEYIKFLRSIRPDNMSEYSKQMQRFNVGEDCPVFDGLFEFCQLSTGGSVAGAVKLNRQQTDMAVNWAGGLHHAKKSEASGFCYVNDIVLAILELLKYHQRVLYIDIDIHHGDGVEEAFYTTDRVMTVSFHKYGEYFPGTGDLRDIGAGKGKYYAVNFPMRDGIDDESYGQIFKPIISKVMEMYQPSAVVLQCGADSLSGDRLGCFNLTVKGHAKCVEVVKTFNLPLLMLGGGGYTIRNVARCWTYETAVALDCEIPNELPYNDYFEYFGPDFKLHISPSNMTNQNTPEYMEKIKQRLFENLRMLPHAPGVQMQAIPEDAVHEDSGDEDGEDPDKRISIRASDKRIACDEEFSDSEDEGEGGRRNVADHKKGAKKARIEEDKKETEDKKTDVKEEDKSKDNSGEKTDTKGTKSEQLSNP

| SMILES | IC50 (Histone deacetylase 2) | IC50 (Histone deacetylase 1) | IC50 (Histone deacetylase 8) | IC50 [1] | IC50 (HCT-116) | IC50 (Histone deacetylase 3) | IC50 (Histone deacetylase) |
| --- | --- | --- | --- | --- | --- | --- | --- |
| COc1ccc(NCc2ccc(C(=O)Nc3cc(-c4cccs4)ccc3O)cc2)cc1OC | 60 nM | 40 nM |  |  |  |  |  |
| CC(=O)Nc1ccc(C(=O)Nc2cc(-c3cccs3)ccc2N)cc1 |  |  | > 20000 nM | > 50000 nM | 500 nM |  |  |
| O=C(/C=C/c1ccc(CN(CCO)CCc2c[nH]c3ccccc23)cc1)NO [DACINOSTAT] |  |  |  | 1000 nM | < 50 nM |  |  |
| COc1ccc(C(=O)Nc2ccccc2N)cc1 | 900 nM | 2000 nM | > 20000 nM | > 50000 nM | 10000 nM | 1400 nM | 3000 nM |
| COc1ccc(NCc2ccc(C(=O)Nc3ccccc3N)cc2)cc1OC | 500 nM | 440 nM |  |  |  |  |  |
| Nc1ccc(-c2cccs2)cc1NC(=O)c1ccc2nccnc2c1 | 200 nM | 60 nM | > 20000 nM | 26000 nM | 900 nM | > 20000 nM | 900 nM |
| COc1ccc(C(=O)Nc2cc(-c3cccs3)ccc2N)cc1 | 200 nM | 50 nM | > 20000 nM | > 50000 nM | 400 nM | > 20000 nM | 150 nM |
| COc1ccc(NCc2ccc(C(=O)Nc3cc(-c4cc5ccccc5s4)ccc3N)cc2)cc1OC | > 10000 nM | > 10000 nM |  |  |  |  |  |
| COc1ccc(NCc2ccc(C(=O)Nc3cc(-c4cccs4)ccc3N)cc2)cc1OC | 80 nM | 50 nM |  |  |  |  |  |
| COc1ccc(NCc2ccc(C(=O)Nc3ccc(-c4cccs4)cc3N)cc2)cc1OC | > 10000 nM | > 10000 nM |  |  |  |  |  |
| COc1ccc(NCc2ccc(C(=O)Nc3cc(-c4ccsc4)ccc3N)cc2)cc1OC | 60 nM |  |  |  |  |  |  |
| Nc1ccc(-c2cccs2)cc1NC(=O)c1ccc(CNC(=O)OCc2cccnc2)cc1 | 100 nM |  |  |  |  |  |  |
| COc1ccc(NCc2ccc(C(=O)Nc3ccccc3O)cc2)cc1OC | 200 nM |  |  |  |  |  |  |
| CC(=O)Nc1ccc(C(=O)Nc2ccccc2N)cc1 [TACEDINALINE] |  |  |  | > 50000 nM | 4000 nM |  |  |
| COc1ccc(NCc2ccc(C(=O)Nc3cc(-c4ccoc4)ccc3N)cc2)cc1OC | 70 nM | 50 nM |  |  |  |  |  |
| COc1ccc(NCc2ccc(C(=O)Nc3cc(-c4ccccc4)ccc3N)cc2)cc1OC | 100 nM |  |  |  |  |  |  |
| Nc1ccccc1NC(=O)c1ccc2nccnc2c1 | 2000 nM | 2000 nM | > 20000 nM | > 50000 nM | 11000 nM | > 20000 nM | 3000 nM |
